From US6509369B2, “Anti-inflammatory compounds” (Ortho-McNeil Pharmaceutical, Inc., priority 1997, dated 2003)

Test system: oxazolone-induced ear swelling (MOCH) in albino male CD-1 mice
Assay: mouse oxazolone-induced contact hypersensitization (MOCH) ear swelling
Assay type: in vivo
Design: % Inhibition MOCH: concentration or dose not given beside the values
Settings: mouse, in vivo
Experimental: Several triphenylpropanamide compounds of this invention, having varying affinities for the human glucocorticoid receptor, were tested for topical antiinflammatory activity in mouse ear inflammation models. […] Compounds having receptor affinities closer to hydrocortisone were as nearly active as hydrocortisone in suppressing mouse oxazolone-induced contact hypersensitization (MOCH) and phorbol ester-induced ear edema. The in vivo studies of this example were conducted as follows.
In determining the MOCH using the compounds of this invention, albino male CD-1 mice, 7-9 weeks old were induced on the shaved abdomen with 50 μl of 3% oxazolone in acetone/corn oil (Day 0). On Day 5, a 20 μl volume of 2% oxazolone in acetone was applied to the dorsal left ear of the mouse . Compounds (made in ethanol/propylene glycol, 70:30) were applied to the left ear in 20 μl volume, one hour after oxazolone challenge. The right ear was not treated. The mice were sacrificed by carbon dioxide inhalation 24 hours after oxazolone challenge, the left and right ears were removed and a 7 mm biopsy was removed from each ear and weighed. The difference in biopsy weights between the right and left ears was calculated. Antiinflammatory effects of compounds were evident as an inhibition of the increase in ear weight.

| SMILES | % Inhibition MOCH |
| --- | --- |
| O=C(Cc1cccs1)NCC(c1ccc2c(c1)OCO2)C(c1ccccc1)c1ccccc1 (stereo not shown) [Compound 99] | 35% |
| Cc1c(CC(=O)NCC(c2ccc3c(c2)OCO3)C(c2ccccc2)c2ccccc2)sc2ccc(Cl)cc12 (stereo not shown) [Compound 100] | 18% |
| O=C(Cc1cc2cc(Cl)ccc2s1)NCC(c1ccc2c(c1)OCO2)C(c1ccccc1)c1ccccc1 (stereo not shown) [Compound 101] | 26% |
| O=C(Cc1ccccn1)NCC(c1ccc2c(c1)OCO2)C(c1ccccc1)c1ccccc1 (stereo not shown) [Compound 102] | 51% |
| O=C(Cc1cccc(C(F)(F)F)c1)NCC(c1ccc2c(c1)OCO2)C(c1ccccc1)c1ccccc1 (stereo not shown) [Compound 103] | 37% |
| O=C(Cc1cc(C(F)(F)F)cc(C(F)(F)F)c1)NCC(c1ccc2c(c1)OCO2)C(c1ccccc1)c1ccccc1 (stereo not shown) [Compound 104] | 52% |
| O=C(Cc1ccc([N+](=O)[O-])cc1)NCC(c1ccc2c(c1)OCO2)C(c1ccccc1)c1ccccc1 (stereo not shown) [Compound 105] | 24% |
| CCCCOc1ccc(CC(=O)NCC(c2ccc3c(c2)OCO3)C(c2ccccc2)c2ccccc2)cc1 (stereo not shown) [Compound 106] | 52% |
| COc1ccccc1CC(=O)NCC(c1ccc2c(c1)OCO2)C(c1ccccc1)c1ccccc1 (stereo not shown) [Compound 107] | 28% |
| COc1cc(CC(=O)NCC(c2ccc3c(c2)OCO3)C(c2ccccc2)c2ccccc2)cc(OC)c1 (stereo not shown) [Compound 108] | 38% |
| O=C(Cc1ccccc1)NCC(c1ccc2c(c1)OCO2)C(c1ccccc1)c1ccccc1 (stereo not shown) [Compound 109] | 22% |
| O=C(Cc1cccc(F)c1)NCC(c1ccc2c(c1)OCO2)C(c1ccccc1)c1ccccc1 (stereo not shown) [Compound 110] | 20% |
| O=C(Cc1ccc(F)cc1F)NCC(c1ccc2c(c1)OCO2)C(c1ccccc1)c1ccccc1 (stereo not shown) [Compound 111] | 60% |

Same assay, conditions: topical to mouse ear, 1 mg, one hour after oxazolone challenge, ear biopsy weight at 24 hours

| SMILES | Oxazolone Ear Swelling (MOCH) % inhibition vs. Vehicle at 1 mg |
| --- | --- |
| O=C(NCC(c1ccccc1)C(c1ccccc1)c1ccccc1)Nc1ccccc1 (stereo not shown) [Compound 50] | 30% |
| O=C(Cc1ccc(Cl)cc1)NCC(c1ccc2c(c1)OCO2)C(c1ccccc1)c1ccccc1 (stereo not shown) [Compound 98] | 85% |

Same assay, conditions: topical, mouse ear

| SMILES | topical antiinflammatory activity in the oxazolone model (in words) |
| --- | --- |
| O=C(Cc1ccc(Cl)cc1)NCC(c1ccc2c(c1)OCO2)C(c1ccccc1)c1ccccc1 (stereo not shown) [Compound 98] | equiactive with hydrocortisone |

Molecular target: T1, human glucocorticoid receptor (hGR) (Homo sapiens, UniProt P04150)
T1 construct: made in house; host or cells: Sf21 insect cells infected with baculovirus hGR, OR IM9 lymphoblast cell line (endogenous hGR)
T1 sequence (P04150 1-777): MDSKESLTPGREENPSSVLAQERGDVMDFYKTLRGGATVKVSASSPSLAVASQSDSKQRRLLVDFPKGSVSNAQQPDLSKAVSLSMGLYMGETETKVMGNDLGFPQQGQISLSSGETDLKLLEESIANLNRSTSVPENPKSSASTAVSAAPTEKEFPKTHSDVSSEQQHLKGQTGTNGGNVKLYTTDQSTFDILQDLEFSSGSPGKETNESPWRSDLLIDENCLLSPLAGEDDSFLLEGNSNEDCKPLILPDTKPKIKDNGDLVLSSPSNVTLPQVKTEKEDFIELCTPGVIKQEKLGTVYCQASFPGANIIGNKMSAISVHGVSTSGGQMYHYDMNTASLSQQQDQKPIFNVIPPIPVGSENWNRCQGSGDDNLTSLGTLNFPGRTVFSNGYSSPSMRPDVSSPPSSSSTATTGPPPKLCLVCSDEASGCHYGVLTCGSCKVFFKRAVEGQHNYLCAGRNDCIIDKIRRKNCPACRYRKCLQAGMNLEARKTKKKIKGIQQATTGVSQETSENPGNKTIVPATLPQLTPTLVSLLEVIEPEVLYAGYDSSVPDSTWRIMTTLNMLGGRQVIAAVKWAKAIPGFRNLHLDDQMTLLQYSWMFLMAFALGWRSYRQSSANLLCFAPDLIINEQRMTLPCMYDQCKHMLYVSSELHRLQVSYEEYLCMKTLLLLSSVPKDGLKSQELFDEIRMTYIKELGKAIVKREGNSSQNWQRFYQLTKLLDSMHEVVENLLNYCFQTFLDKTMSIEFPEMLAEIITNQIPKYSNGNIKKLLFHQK
Assay: human glucocorticoid receptor binding assay (displacement of 3(H) Triamcinolone acetonide)
Settings: not given
Experimental: A human glucocorticoid receptor binding assay was carried out to determine the extent to which the compounds of this invention have the ability to bind to human glucocorticoid receptors. This binding ability may be indicative of the antiinflammatory activity of the compound. The test was carried out as follows.
Human glucocorticoid receptors were prepared from either insect cells (Sf21) infected with baculovirus hGR or from a lymphoblast cell line which expresses high levels of endogenous hGR (IM9). The receptor binding reactions, with or without test compounds, were set up in 96-well microtiter plates which were previously siliconized with SIGMACOTE™, a chlorinated organopolysiloxane in heptane. The binding components, 3(H) Triamcinolone acetonide (TAA), glycerol/molybdate-containing buffer and unlabeled compounds were added to the wells using a combination of BIOMEK laboratory automation system and repeat pipettes. After four hours of incubation, the samples were precipitated with polyethylene glycol and filtered through Whatman GF/F paper using a TOMTEK cell harvester. The filter mate with 96 samples were bound to a solid-phase scintillant and directly counted in a BETAPLATE counter. […] The activity of test compounds to displace 3(H) TAA binding to hGR is also expressed as percent inhibition at 1 μM.

| IC50 | SMILES |
| --- | --- |
| 219 nM | O=C(NCc1ccccc1)NCC(c1ccccc1)C(c1ccccc1)c1ccccc1 (stereo not shown) [Compound 54] |
| 121 nM | O=C(NCc1ccc(Cl)cc1Cl)NCC(c1ccccc1)C(c1ccccc1)c1ccccc1 (stereo not shown) [Compound 55] |
| 446 nM | CCCC(=O)NCC(c1ccccc1)C(c1ccccc1)c1ccccc1 (stereo not shown) [Compound 60] |
| 584 nM | CC(C)C(=O)NCC(c1ccccc1)C(c1ccccc1)c1ccccc1 (stereo not shown) [Compound 61] |
| 121 nM | CCCCC(=O)NCC(c1ccccc1)C(c1ccccc1)c1ccccc1 (stereo not shown) [Compound 62] |
| 316 nM | CC(C)CC(=O)NCC(c1ccccc1)C(c1ccccc1)c1ccccc1 (stereo not shown) [Compound 63] |
| 296 nM | CC(C)(C)C(=O)NCC(c1ccccc1)C(c1ccccc1)c1ccccc1 (stereo not shown) [Compound 64] |
| 937 nM | CCOC(=O)CC(=O)NCC(c1ccccc1)C(c1ccccc1)c1ccccc1 (stereo not shown) [Compound 65] |
| 770 nM | O=C(Cc1ccccc1)NCC(c1ccccc1)C1c2ccccc2CCc2ccccc21 (stereo not shown) [Compound 73] |
| 388 nM | COc1ccccc1CCC(=O)NCC(c1ccccc1)C1c2ccccc2CCc2ccccc21 (stereo not shown) [Compound 74] |
| 363 nM | O=C(Cc1cccs1)NCC(c1ccccc1)C1c2ccccc2CCc2ccccc21 (stereo not shown) [Compound 75] |
| 571 nM | O=C(Cc1ccsc1)NCC(c1ccccc1)C1c2ccccc2CCc2ccccc21 (stereo not shown) [Compound 76] |
| 882 nM | Cc1ccc(C(=O)NCC(c2ccccc2)C2c3ccccc3CCc3ccccc32)s1 (stereo not shown) [Compound 77] |
| 709 nM | COc1ccccc1CCC(=O)NCC1(c2ccccc2)CC1(c1ccccc1)c1ccccc1 (stereo not shown) [Compound 81] |
| 425 nM | O=C(Cc1cccs1)NCC1(c2ccccc2)CC1(c1ccccc1)c1ccccc1 (stereo not shown) [Compound 88] |
| 612 nM | O=C(NCC1(c2ccccc2)CC1(c1ccccc1)c1ccccc1)c1cccs1 (stereo not shown) [Compound 90] |
| 421 nM | Cc1ccc(C(=O)NCC2(c3ccccc3)CC2(c2ccccc2)c2ccccc2)s1 (stereo not shown) [Compound 91] |

Second part, the molecule before the results:

| SMILES | IC50 |
| --- | --- |
| COc1ccc(CC(=O)NCC(c2ccccc2)C(c2ccccc2)c2ccccc2)cc1 (stereo not shown) [Compound 6] | 910 nM |
| O=C(Cc1ccc(Cl)c(Cl)c1)NCC(c1ccccc1)C(c1ccccc1)c1ccccc1 (stereo not shown) [Compound 9] | 1480 nM |
| O=C(NCC(c1ccccc1)C(c1ccccc1)c1ccccc1)C(c1ccccc1)c1ccccc1 (stereo not shown) [Compound 13] | 780 nM |
| O=C(CCc1ccccc1Cl)NCC(c1ccccc1)C(c1ccccc1)c1ccccc1 (stereo not shown) [Compound 22] | 103 nM |
| O=S(=O)(Cc1ccccc1)NCC(c1ccccc1)C(c1ccccc1)c1ccccc1 (stereo not shown) [Compound 25] | 210 nM |
| Cc1ccc(S(=O)(=O)NCC(c2ccccc2)C(c2ccccc2)c2ccccc2)cc1 (stereo not shown) [Compound 26] | 175 nM |
| O=C(CS(=O)(=O)c1ccccc1)NCC(c1ccccc1)C(c1ccccc1)c1ccccc1 (stereo not shown) [Compound 27] | 67 nM |
| Cc1ccc(S(=O)(=O)CC(=O)NCC(c2ccccc2)C(c2ccccc2)c2ccccc2)cc1 (stereo not shown) [Compound 28] | 57 nM |
| Cc1ccc(C(=O)NCC(c2ccccc2)C(c2ccccc2)c2ccccc2)s1 (stereo not shown) [Compound 30] | 50 nM |
| O=C(Cc1cccs1)NCC(c1ccccc1)C(c1ccc(F)cc1)c1ccc(F)cc1 (stereo not shown) [Compound 31] | 8 nM |
| O=C(Cc1cccs1)NCC(c1ccc(I)cc1)C(c1ccccc1)c1ccccc1 (stereo not shown) [Compound 33] | 8.6 nM |
| O=C(Cc1ccsc1)NCC(c1ccc(Cl)cc1)C(c1ccccc1)c1ccccc1 (stereo not shown) [Compound 35] | 54 nM |
| O=C(C=Cc1cccs1)NCC(c1ccccc1)C(c1ccccc1)c1ccccc1 (stereo not shown) [Compound 38] | 189 nM |
| O=C(C=Cc1ccsc1)NCC(c1ccccc1)C(c1ccccc1)c1ccccc1 (stereo not shown) [Compound 39] | 727 nM |
| O=S(=O)(NCC(c1ccc(Cl)cc1)C(c1ccccc1)c1ccccc1)c1cccs1 (stereo not shown) [Compound 41] | 491 nM |
| O=C(NCC(c1ccccc1)C(c1ccccc1)c1ccccc1)c1cc2ccccc2s1 (stereo not shown) [Compound 43] | 495 nM |
| CN(CC(c1ccccc1)C(c1ccccc1)c1ccccc1)C(=O)Cc1cccs1 (stereo not shown) [Compound 44] | 133 nM |
| O=C(NCC(c1ccccc1)C(c1ccccc1)c1ccccc1)Nc1ccccc1Cl (stereo not shown) [Compound 52] | 273 nM |
| O=C(NCC(c1ccccc1)C(c1ccccc1)c1ccccc1)Nc1ccccc1F (stereo not shown) [Compound 53] | 293 nM |
| O=C(NCC(c1ccccc1)C(c1ccccc1)c1ccccc1)Oc1ccccc1 (stereo not shown) [Compound 56] | 310 nM |
| O=C(NCC(c1ccccc1)C(c1ccccc1)c1ccccc1)Oc1ccc(F)cc1 (stereo not shown) [Compound 58] | 240 nM |
| O=C(NCC(c1ccccc1)C(c1ccccc1)c1ccccc1)Oc1ccc2ccccc2c1 (stereo not shown) [Compound 59] | 155 nM |

Same assay, conditions: concentration not given

| hGR, value given as % | SMILES |
| --- | --- |
| 32% | COc1ccccc1NC(=O)NCC(c1ccccc1)C(c1ccccc1)c1ccccc1 (stereo not shown) [Compound 51] |
| 23% | COc1ccccc1CC(=O)NCC(c1ccccc1)C1c2ccccc2-c2ccccc21 (stereo not shown) [Compound 67] |
| 53% | COc1ccccc1CCC(=O)NCC(c1ccccc1)C1c2ccccc2-c2ccccc21 (stereo not shown) [Compound 70] |
